Measurements published in patent US12084423B2, “Piperlongumine analogues and uses thereof” (BioVentures, LLC, priority 2018, dated 2024).

Columns and labels:
[1] = test system: IR-induced senescent cells (IR-SC WI-38); assay: Cell viability of IR-induced senescent WI-38 cells after 72 hours of compound treatment; assay type: cell-based; settings: for EC50: Homo sapiens, IR-induced senescent WI-38 cells, cell viability at 72 hours post-treatment; for selective killing of senescent WI38 cells over normal WI38 cells: ionizing radiation (IR, 10 Gy) induced senescent vs normal WI38 cells, viability at 72 hours, percent of control
Description: (§1) Normal WI-38 cells and IR-induced senescent cells were incubated with increasing concentrations of compounds of Formula (I). At 72 hours post-treatment cell viability was measured and ED50was calculated. Table 1 depicts the ED50 values of the compounds of Formula (I) against normal and IR-induced senescent cells.

normal WI-38 cells = assay: Cell viability of normal WI-38 cells after 72 hours of compound treatment; assay type: cell-based; settings: Homo sapiens, cell viability at 72 hours post-treatment
Description: as §1

| Compound | EC50 [1] [µM] | EC50 (normal WI-38 cells) [µM] | selective killing of senescent WI38 cells over normal WI38 cells [1] |
| --- | --- | --- | --- |
| COc1ccc(/C=C/C(=O)N2CCCC=C(Cl)C2=O)cc1 [No 10] | 0.16 | 1.5 | – |
| COc1cc(/C=C/C(=O)N2OCC=CC2=O)cc(OC)c1OC [No 7] | 8 | 47.7 | – |
| C=CC(=O)N1OCC=CC1=O [No 12] | 5.7 | 16.3 | – |
| COc1cc(/C=C/C(=O)N2CCC=C(F)C2=O)cc(OC)c1OC [No 1] | 15.3 | 12.1 | – |
| O=C1C(Br)=CCCN1C(=O)c1cc2ccccc2oc1=O [No 13] | 1.7 | 6.2 | – |
| COc1ccc(/C=C/C(=O)N2CCC=C(Cl)C2=O)cc1 [No 8] | 0.51 | 0.35 | – |
| COc1cc(C(Cl)=CC(=O)N2CCCC=CC2=O)cc(OC)c1OC [XZ-12089, (E)-β-chloro-1-(β-(3,4,5-trimethoxyphenyl)acryloyl)-1,5,6,7-tetrahydro-2H-azepin-2-one] | – | – | selectively kills senescent WI38 cells over normal WI38 cells |
| O=C1C(Cl)=CCCN1S(=O)(=O)/C=C/c1ccccc1 [No 15] | 0.94 | 8.8 | – |
| COc1cc(/C=C/C(=O)N2CCC=C(Cl)C2=O)cc(OC)c1OC [No 2] | 0.65 | 5.3 | – |
| O=C1C(Br)=CCCCN1C(=O)c1cc2ccccc2oc1=O [No 14] | 4 | 5 | – |
| O=C1C(Br)=CCCN1S(=O)(=O)/C=C/c1ccccc1 [No 16] | 2.8 | 28.1 | – |
| COc1ccc(/C=C/C(=O)N2CCCC=C(Br)C2=O)cc1 [No 11] | 1.3 | 5.8 | – |
| COc1cc(/C=C/C(=O)N2CCC=C(I)C2=O)cc(OC)c1OC [No 4] | 2.3 | 18.3 | – |
| COc1ccc(/C=C/C(=O)N2CCC=C(Br)C2=O)cc1 [No 9] | 0.63 | 1.1 | – |
| COc1cc(/C=C/C(=O)N2CCCC=C(Br)C2=O)cc(OC)c1OC [No 6] | 0.56 | 3.6 | – |
| COc1cc(/C=C/C(=O)N2CCC=C(Br)C2=O)cc(OC)c1OC [No 3] | 0.52 | 5.4 | – |
| COc1cc(/C=C/C(=O)N2CCCC=C(Cl)C2=O)cc(OC)c1OC [No 5] | 0.45 | 1.7 | – |
| COc1cc(/C=C/C(=O)N2OCC=CC2=O)cc(OC)c1OC [XZ-12037, (E)-2-(β-(3,4,5-trimethoxyphenyl)acryloyl)-2H-1,2-oxazin-3(6H)-one] | – | – | selectively kills senescent WI38 cells over normal WI38 cells |
